Experimental data taken from ChEMBL document CHEMBL1134987, “Novel spirocyclic pyrrolidones as P2/P1 mimetics in potent inhibitors of HIV-1 protease” (Bioorg Med Chem Lett, 2002).

What follows are molecules tested against Human immunodeficiency virus type 1 protease (Human immunodeficiency virus 1, UniProt Q72874) (assay: The compound was tested for its inhibition against HIV-1 protease).

Point of comparison: `COc1ccc(S(=O)(=O)N(CC2CCCC2)C[C@@H](O)CN2C(=O)C3(CCCCC3)OC[C@@H]2Cc2ccccc2)cc1`, Ki 1.7 nM. Against it:
- O=C(N[C@H]1c2ccccc2C[C@H]1O)[C@H](Cc1ccccc1)C[C@H](O)CN1C(=O)C2(CCCCC2)C[C@@H]1Cc1ccccc1 — 29-fold higher, 50 nM
- NC(C(=O)[C@H](Cc1ccccc1)C[C@H](O)CN1C(=O)[C@@H](Cc2ccccc2)C[C@@H]1Cc1ccccc1)[C@H]1c2ccccc2C[C@H]1O (stereo partly specified) — 34-fold lower, 0.05 nM
- COc1ccc(S(=O)(=O)N(CC2CCCC2)C[C@@H](O)CN2C(=O)[C@@H](Cc3ccccc3)C[C@@H]2Cc2ccccc2)cc1 — 2.1-fold lower, 0.8 nM
- O=C(N[C@H]1c2ccccc2C[C@H]1O)[C@H](Cc1ccccc1)C[C@H](O)CN1C(=O)C2(CCOCC2)C[C@@H]1Cc1ccccc1 — 14-fold higher, 23 nM
- O=C(N[C@H]1c2ccccc2C[C@H]1O)[C@H](Cc1ccccc1)C[C@H](O)CN1C(=O)C2(CCN(Cc3ccccc3)CC2)C[C@@H]1Cc1ccccc1 — 1500-fold higher, 2500 nM
